Measurements published in PMC9163038 (Scientific Reports, 2022).
Read-outs that look alike come from different tables or passages of the source. Where a SMILES comes first, the peptide text is derived from it. Bridges are numbered along the chain shown (N, C = ends).

Tests used:
HEK293 cells = assay: Cell viability assay (Cell Counting Kit-8); settings: 2 h incubation
Method: Effect on cell viability of plant extract was measured against the HEK293 cell line using the Cell Counting Kit-8 (VitaScientific, USA). Briefly, 100 µL of medium containing 1 × 10^4 cells was seeded in each well of a 96-well plate and incubated at 37 °C for 24 h. […] Finally, 10 µL of the kit reagent (final concentration of 10%, v/v) was added into each well and incubated at 37 °C for 3 h. Absorbance was measured at 450 nm using the FlexStation 3 multi-mode microplate reader (Molecular Devices, USA). Triton X-100 and medium were used as positive and negative controls, respectively. The cell viability (CV) percentage was calculated using the following equation: CV (%) = (AS/AC) × 100, whereas AS and AC are related to the absorbance of sample and negative control at 450 nm.

mouse CCK2R = biological target: T1, mouse CCK2R (Mus musculus, UniProt P56481); assay: Inositol-1-phosphate (IP1) accumulation assay (HTRF) in HEK293 cells transiently expressing CCK2R; settings: for Emax: HEK293, read-out: Maximum efficacy (Emax) at the CCK2R; for Antagonism of CCK-8-induced IP1 formation: antagonist 500 nM, preincubated 30 min at 37 °C, CCK-8 10 nM, Fig. S1b, n = 3-5; for IP1 formation (fold difference over baseline): positive control, n = 3-4
T1 sequence (P56481 1-453): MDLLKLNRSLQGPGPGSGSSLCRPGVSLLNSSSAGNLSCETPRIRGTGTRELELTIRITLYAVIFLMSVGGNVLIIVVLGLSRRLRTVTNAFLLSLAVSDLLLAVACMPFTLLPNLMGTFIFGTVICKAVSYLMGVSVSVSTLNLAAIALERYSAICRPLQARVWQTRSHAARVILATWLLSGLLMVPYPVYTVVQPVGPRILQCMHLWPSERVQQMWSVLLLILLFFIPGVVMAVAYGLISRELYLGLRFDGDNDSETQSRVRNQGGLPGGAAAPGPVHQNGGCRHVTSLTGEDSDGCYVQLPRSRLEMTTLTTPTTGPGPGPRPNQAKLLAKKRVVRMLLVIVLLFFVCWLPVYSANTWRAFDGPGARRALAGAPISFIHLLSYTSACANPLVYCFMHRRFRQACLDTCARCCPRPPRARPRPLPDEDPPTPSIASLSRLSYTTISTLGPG
Method: Human embryonic kidney (HEK293) cells (Ref.[31]) were maintained in a fresh Dulbecco’s modified Eagle’s medium supplemented with 10% fetal bovine serum, 100 U/mL penicillin, and 100 µg/mL streptomycin in a humidified atmosphere of 5% CO2 at 37 °C. 2 mL of cell suspension was poured into each well of a 6-well plate and incubated overnight at 37 °C. After reaching to a confluency of 70–80%, the cells were transfected with a plasmid encoding EGFP-tagged CCK2R using the jetPRIME transfection reagent according to manufacturer’s instructions (Polyplus-transfection, USA).
The receptor-mediated activation of Gq-dependent signaling was measured using a homogenous time-resolved fluorescence (HTRF) based inositol-1-phosphate (IP1) assay kit (Cisbio, France). Approximately 3-6 × 10^4 HEK293 cells expressing the CCK2R were seeded into each well of a 96- or 384-well plate and incubated overnight at 37 °C. […] Antagonists YM-022 and LY225910 (500 nM or 1 µM, both Sigma -Aldrich, Austria) were preincubated at 37 °C for 30 min. After adding IP1-d2 conjugate and anti-IP1 Eu Cryptate according to manufacturers’ instructions, the plate was incubated at room temperature for 3 h. The HTRF measurement was carried out using the FlexStation 3 multi-mode microplate reader with excitation at 330 nm and emissions at 620 and 665 nm.
All experiments were performed in triplicate, analyzed using the GraphPad prism software (GraphPad Software, USA) and expressed as mean ± SD (standard deviation). Pharmacological data of concentration response curves were normalized to the maximal response of CCK-8 detected at the highest concentration. […] Single concentration efficacy data were normalized to baseline (assay buffer) and data were expressed as IP1 formation (fold difference over baseline).

[1] = biological target: T2, mouse cholecystokinin-2 receptor, EGFP-tagged (mouse) (UniProt P56481)
T2 sequence: T1 sequence (P56481 1-453)

[2] = biological target: T2, mouse cholecystokinin-2 receptor, EGFP-tagged (mouse); remark: listed apart in the source

Chain of cholecystokinin-8 (P06307 whole entry, looked up): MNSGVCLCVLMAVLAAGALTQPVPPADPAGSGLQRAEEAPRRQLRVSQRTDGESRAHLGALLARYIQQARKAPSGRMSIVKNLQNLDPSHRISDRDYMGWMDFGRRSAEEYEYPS

Molecule: CC[C@H](C)[C@@H]1NC(=O)[C@@H]2CSSC[C@@H]3NC(=O)[C@H](C(C)C)NC(=O)[C@H](CCCCN)NC(=O)[C@H](CCCCN)NC(=O)[C@H](CCCCN)NC(=O)[C@@H]4CSSC[C@H](NC(=O)[C@H](CO)NC(=O)[C@H](CCC(=O)O)NC(=O)CNC(=O)[C@H](CSSC[C@H](NC(=O)CNC(=O)[C@H]([C@@H](C)CC)NC(=O)[C@H](C(C)C)NC(=O)[C@H]([C@@H](C)O)NC(=O)[C@H](CO)NC1=O)C(=O)N[C@@H](CO)C(=O)N4)NC(=O)[C@@H]1CCCN1C(=O)[C@H]([C@@H](C)CC)NC(=O)[C@H](C(C)C)NC(=O)CNC(=O)[C@H](CC(N)=O)NC(=O)[C@H](CCCNC(=N)N)NC(=O)[C@H](Cc1ccc(O)cc1)NC3=O)C(=O)N[C@@H](C(C)C)C(=O)N[C@@H](Cc1ccccc1)C(=O)N[C@@H]([C@@H](C)CC)C(=O)N1CCC[C@H]1C(=O)N2 [caripe 11] (cyclo(CGESCVFIPCISTVIGCSCKKKVCYRNGVIP); disulfide 1-17, 5-19, 10-24)
- Effect on HEK cell viability (HEK293 cells; caripe 11 100 µM): slightly decreased HEK cell viability
- Effect on HEK cell viability (HEK293 cells; caripe 11 ≤ 30 µM): did not have a pronounced effect
- Emax (mouse CCK2R; SD): 71 ± 6.9%
- EC50 (mouse CCK2R; SD): 8500 ± 1700 nM
- Reduction of the EC80 effect of CCK-8 (mouse CCK2R; caripe 11 30 µM co-incubated with CCK-8 70 nM (EC80), Fig. S1a, n = 2): ~ 20%
- Basal activity of the CCK-8 concentration-response curve upon co-treatment (mouse CCK2R; co-treatment with caripe 11 10 µM, increased from 0, Fig. 5b, n = 3): 17%

Molecule: cholecystokinin-8 (from UniProt P06307 96-103) (peptide)
- EC50 of IP1 accumulation, CCK-8 alone (control curve of the co-treatment experiment, Fig. 5b) [1]: 12.9 nM

Molecule: Cc1cccc(NC(=O)N[C@@H]2N=C(c3ccccc3)c3ccccc3N(CC(=O)c3ccccc3C)C2=O)c1 [YM-022, (R)-1-[2,3-dihydro-1-(2'-methylphenacyl)-2-oxo-5-phenyl-1H-1,4-benzodiazepin-3-yl]-3-(3-methylphenyl) urea]
- Antagonism of CCK-8-induced IP1 formation (mouse CCK2R): significant inhibition of the IP1 formation

Molecule: CSCC[C@H](NC(=O)[C@H](Cc1ccc(OS(=O)(=O)O)cc1)NC(=O)[C@@H](N)CC(=O)O)C(=O)NCC(=O)N[C@@H](Cc1c[nH]c2ccccc12)C(=O)N[C@@H](CCSC)C(=O)N[C@@H](CC(=O)O)C(=O)N[C@@H](Cc1ccccc1)C(N)=O [CCK-8, cholecystokinin-8]
- IP1 formation (fold difference over baseline) (mouse CCK2R; CCK-8 at 1 nM): 0.09 fold difference over baseline
- IP1 formation (fold difference over baseline) (mouse CCK2R; CCK-8 at 3 nM): 0.31 fold difference over baseline
- EC50 (mouse CCK2R; EC50 of CCK-8 alone, CCK-8 alone, Fig. 5b experiment, n = 3): 12.9 nM
- Emax (mouse CCK2R): 100%
- EC50 (mouse CCK2R; SD): 11.5 ± 1.5 nM

Molecule: CC(C)Oc1cccc(-n2c(CCc3c[nH]c4ccc(Br)cc34)nc3ccccc3c2=O)c1 [LY225910]
- Antagonism of CCK-8-induced IP1 formation (mouse CCK2R): did not displace the effects of endogenous ligand CCK-8

Molecule: cyclo(GVIPCGESCVFIPCISTVIGCSCKKKVCYRN) (also: three disulfide bonds, pairing not given here) [caripe 11]
- reduction of the IP1 effect of 70 nM (EC80) CCK-8 by co-incubated caripe 11 (3, 10, 30 µM); value at 30 µM [1]: 20%
- EC50 of IP1 accumulation (HTRF) in HEK293 cells transiently expressing CCK2R [2]: 8500 nM
- Emax of IP1 accumulation, normalised to the maximal response of CCK-8 [2]: 71%
